Laboratory results from US20110034472A1, “Novel Compounds for Treatment of Cancer and Disorders Associated With Angiogenesis Function” (UNIVERSITY OF SOUTHERN CALIFORNIA, priority 2004, published 2011).

System: T24 bladder cancer cell lines
Experiment: StaRT-PCR gene expression, SC23
Type: cell-based, human
Description: FIG. 21 illustrates RT-PCR gene expression analysis. Total RNA form T24 cells was isolated and cDNA was synthesized with 2.5 ug of total RNA. Standardized RT-PCR was performed with GENE system I gene expression kit (Gene Express Inc.). Each kit contains a mixture of the internal competitive templates and the corresponding primers.
Total RNA form T24 cells were isolated after 3h, Oh, 12h, 24h, and 48h exposure to SC23.
StaRT-PCR™ (Standardized Reverse Transcription Polymerase Chain Reaction). First described by Willey et al. ((2004) Methods Mol. Biol. 258:13-41), this technique uses standardized mixtures of competitive templates (CT) as internal standards in generating valid and reproducible numerical gene expression data for multiple genes. After the mRNA was converted to cDNA, the cDNA was mixed with a proprietary Standardized Mixture of Internal Standards™ (SMIS™, GeneExpress, Inc.). In the standard mixture, there is an internal standard CT for each gene to be measured as well as one for a reference gene. (i.e., β-actin, GAPDH). The amplicons produced by StaRT-PCR™ was then separated on capillary electrophoresis. The amount of internal standard CT or NT amplimer was determined by measuring each peak area. All data were then reported as number of molecules of mRNA for gene of interest per 10^6 molecules of reference gene (normalizer gene). Serial dilutions of the SMIS™ allow quantitative measurements over 7 log range of gene expression observed in cells from <10 to 10^7 molecules/10^6 molecules reference gene. Data presented in Table 8 are number of copies that have been normalized against 10^6 molecule of β-actin.

O=C(NNC(O)c1cc2ccccc2cc1O)c1cc2ccccc2cc1O (stereo not shown) [SC23]
E2F4 expression (12 hours): 1673.69 molecules/10^6 β-actin | E2F5 expression (12 hours): 486.8 molecules/10^6 β-actin | JUN expression (12 hours): 5419.7 molecules/10^6 β-actin | MAD expression (12 hours): 7122.48 molecules/10^6 β-actin | MAP3K14 expression (12 hours): 158.89 molecules/10^6 β-actin | MYC expression (12 hours): 5205.65 molecules/10^6 β-actin | NFKB1 expression (12 hours): 6131.17 molecules/10^6 β-actin | PCNA expression (12 hours): 5756.09 molecules/10^6 β-actin | PTGS2 expression (12 hours): 2138.52 molecules/10^6 β-actin | RB1 expression (12 hours): 3301.83 molecules/10^6 β-actin | RBL2 expression (12 hours): 2698.44 molecules/10^6 β-actin | TGFBR2 expression (12 hours): 6799.19 molecules/10^6 β-actin | TGIF expression (12 hours): 13858.11 molecules/10^6 β-actin | TNFAIP1 expression (12 hours): 22572.81 molecules/10^6 β-actin | TNFRSF1A expression (12 hours): 107.17 molecules/10^6 β-actin | TNFSF10 expression (12 hours): 288.01 molecules/10^6 β-actin | TP53 expression (12 hours): 1663.37 molecules/10^6 β-actin | TRAF4 expression (12 hours): 222.84 molecules/10^6 β-actin | BCL2L1 expression (24 hours): 30504.02 molecules/10^6 β-actin | BCL2 expression (24 hours): 35.99 molecules/10^6 β-actin | CASP1 expression (24 hours): 142.49 molecules/10^6 β-actin | CCNA2 expression (24 hours): 241.1 molecules/10^6 β-actin | CCND3 expression (24 hours): 404.3 molecules/10^6 β-actin | CCNE1 expression (24 hours): 47.28 molecules/10^6 β-actin | CCNG1 expression (24 hours): 17499.15 molecules/10^6 β-actin | CDC2 expression (24 hours): 2054.95 molecules/10^6 β-actin | CDC25C expression (24 hours): 326.46 molecules/10^6 β-actin | CDK7 expression (24 hours): 9983.36 molecules/10^6 β-actin | CDK8 expression (24 hours): 1706.26 molecules/10^6 β-actin | CDKN1A expression (24 hours): 225.4 molecules/10^6 β-actin | CDKN1B expression (24 hours): 2092.37 molecules/10^6 β-actin | CDKN2A expression (24 hours): 163.48 molecules/10^6 β-actin | CDKN2C expression (24 hours): 904.8 molecules/10^6 β-actin | CYP1A2 expression (24 hours): 36.62 molecules/10^6 β-actin | DAP expression (24 hours): 56353.65 molecules/10^6 β-actin | E2F4 expression (24 hours): 1582.79 molecules/10^6 β-actin | E2F5 expression (24 hours): 1178.84 molecules/10^6 β-actin | JUN expression (24 hours): 8677.27 molecules/10^6 β-actin | MAD expression (24 hours): 13204.24 molecules/10^6 β-actin | MAP3K14 expression (24 hours): 143.47 molecules/10^6 β-actin | MYC expression (24 hours): 11117.04 molecules/10^6 β-actin | NFKB1 expression (24 hours): 16919.99 molecules/10^6 β-actin | PCNA expression (24 hours): 12795.59 molecules/10^6 β-actin | PTGS2 expression (24 hours): 19413.37 molecules/10^6 β-actin | RB1 expression (24 hours): 5935.72 molecules/10^6 β-actin | RBL2 expression (24 hours): 8604.92 molecules/10^6 β-actin | TGFBR2 expression (24 hours): 15367.23 molecules/10^6 β-actin | TGIF expression (24 hours): 15445.36 molecules/10^6 β-actin | TNFAIP1 expression (24 hours): 39858.96 molecules/10^6 β-actin | TNFRSF1A expression (24 hours): 26.61 molecules/10^6 β-actin | TNFSF10 expression (24 hours): 151.09 molecules/10^6 β-actin | TP53 expression (24 hours): 4238.06 molecules/10^6 β-actin | TRAF4 expression (24 hours): 242.44 molecules/10^6 β-actin | BCL2L1 expression (48 hours): 21299.99 molecules/10^6 β-actin | BCL2 expression (48 hours): 22.29 molecules/10^6 β-actin | CASP1 expression (48 hours): 184.55 molecules/10^6 β-actin | CCNA2 expression (48 hours): 137.61 molecules/10^6 β-actin | CCND3 expression (48 hours): 641.75 molecules/10^6 β-actin | CCNE1 expression (48 hours): 146.61 molecules/10^6 β-actin | CCNG1 expression (48 hours): 25388.52 molecules/10^6 β-actin | CDC2 expression (48 hours): 497.44 molecules/10^6 β-actin | CDC25C expression (48 hours): 68.37 molecules/10^6 β-actin | CDK7 expression (48 hours): 19212.16 molecules/10^6 β-actin | CDK8 expression (48 hours): 3052.4 molecules/10^6 β-actin | CDKN1A expression (48 hours): 288.56 molecules/10^6 β-actin | CDKN1B expression (48 hours): 414.6 molecules/10^6 β-actin | CDKN2A expression (48 hours): 3382.09 molecules/10^6 β-actin | CDKN2C expression (48 hours): 650.26 molecules/10^6 β-actin | CYP1A2 expression (48 hours): 37.48 molecules/10^6 β-actin | DAP expression (48 hours): 70325.95 molecules/10^6 β-actin | E2F4 expression (48 hours): 3738.46 molecules/10^6 β-actin | E2F5 expression (48 hours): 2144.23 molecules/10^6 β-actin | JUN expression (48 hours): 9510.55 molecules/10^6 β-actin | MAD expression (48 hours): 12999.27 molecules/10^6 β-actin | MAP3K14 expression (48 hours): 720.55 molecules/10^6 β-actin | MYC expression (48 hours): 8944.84 molecules/10^6 β-actin | NFKB1 expression (48 hours): 26524.38 molecules/10^6 β-actin | PCNA expression (48 hours): 6913.72 molecules/10^6 β-actin | PTGS2 expression (48 hours): 26516.88 molecules/10^6 β-actin | RB1 expression (48 hours): 6552.57 molecules/10^6 β-actin | RBL2 expression (48 hours): 11571.33 molecules/10^6 β-actin | TGFBR2 expression (48 hours): 5072 molecules/10^6 β-actin | TGIF expression (48 hours): 19849.69 molecules/10^6 β-actin | TNFAIP1 expression (48 hours): 49955.6 molecules/10^6 β-actin | TNFRSF1A expression (48 hours): 21.29 molecules/10^6 β-actin | TNFSF10 expression (48 hours): 79.65 molecules/10^6 β-actin | TP53 expression (48 hours): 2821 molecules/10^6 β-actin | TRAF4 expression (48 hours): 298.28 molecules/10^6 β-actin
